Where “and” joins values, the source holds several entries; their conditions need not be identical. Equal values may be shown once. Blank lines part the entries; values can stand above or below the compound they belong to.
Key:
[1] = instrument: DT, single field, calibrated with Agilent tune mix (Agilent)
[2] = instrument: DT, stepped-field
[3] = instrument: TW, calibrated with phosphatidylcholines (ESI+) and phosphatidylethanolamines (ESI-)
[4] = [M+Na]+; instrument: DT; stepped-field

Compound: CC/C=C\C/C=C\C/C=C\C/C=C\C/C=C\CCCC(=O)OC[C@H](COP(=O)(O)OCCN)OC(=O)CCC/C=C\C/C=C\C/C=C\C/C=C\CCCCC [PE(40:9)]
collision cross section (N2) ([1]; [M+Na]+): 283.1 Å²
collision cross section (N2) ([2]; [M+Na]+): 286.6 Å²

Compound: CC/C=C\C/C=C\C/C=C\C/C=C\C/C=C\C/C=C\CCC(=O)OC[C@H](COP(=O)(O)OC[C@H](N)C(=O)O)OC(=O)CCCCC/C=C\C/C=C\C/C=C\C/C=C\CCCCC [PS(44:10)]
collision cross section (N2) [4]: 296.88 Å²
collision cross section (N2) ([2]; [M+Na]+): 303.5 Å²

Compound: CC/C=C\C/C=C\C/C=C\C/C=C\C/C=C\C/C=C\CCC(=O)O[C@H](COC(=O)CCCCCCCCC/C=C\C/C=C\CCCCC)COP(=O)(O)OCCN [PE(42:8)]
collision cross section (N2) ([3]; [M+H]+): 290 Å²
collision cross section (N2) ([2]; [M+Na]+): 297.3 Å²

Compound: CC(=O)NC1C(O)OC(CO)C(O)C1OC1OC(CO)C(O)C(O)C1O (centres undefined) [HexNAc-Hex]
collision cross section (N2) ([2]; [M+K]+): 191.1 Å²
collision cross section (N2) ([2]; [M+Na-H2O]+): 184.3 Å²
collision cross section (N2) ([2]; [M+Na]+): 190.2 Å²

Compound: CCC=CCC=CCC=CCC=CCC=CCC=CCC(=O)OC[C@H](COP(=O)(O)OCC[N+](C)(C)C)OC(=O)CC=CCC=CCC=CCC=CCC=CCC=CCC [PC(42:12)]
collision cross section (N2) ([2]; [M+Na]+): 303.9 Å²

Compound: CCC(C)[C@H](NC(=O)CNC(=O)[C@H](CC(C)C)NC(=O)[C@@H](N)C(C)C)C(=O)N[C@@H](CC(=O)O)C(=O)NCC(=O)NCC(=O)N[C@@H](CCC(=O)O)C(=O)NCC(=O)N[C@@H](CCCCN)C(=O)O (some centres undefined) [VLGIDGGEGK]
collision cross section (N2) ([2]; [M+H]+): 291.2 Å²

Compound: CC/C=C\C/C=C\C/C=C\C/C=C\C/C=C\C/C=C\CCC(=O)OC[C@H](COP(=O)(O)OC[C@H](N)C(=O)O)OC(=O)CCC/C=C\C/C=C\C/C=C\C/C=C\C/C=C\CC [PS(42:11)]
collision cross section (N2) ([2]; [M+Na]+): 294.2 Å²

Compound: OC[C@H]1O[C@H](O[C@H]2[C@H](O)[C@@H](O)[C@@H](O[C@H]3[C@H](O)[C@@H](O)[C@@H](O[C@H]4[C@H](O)[C@@H](O)[C@@H](O[C@H]5[C@H](O)[C@@H](O)[C@@H](O[C@H]6[C@H](O)[C@@H](O)[C@@H](O[C@H]7[C@H](O)[C@@H](O)[C@@H](O)O[C@@H]7CO)O[C@@H]6CO)O[C@@H]5CO)O[C@@H]4CO)O[C@@H]3CO)O[C@@H]2CO)[C@H](O)[C@@H](O)[C@@H]1O [Maltoheptaose]
collision cross section (N2) ([2]; [M+H]+): 303.3 Å²
collision cross section (N2) ([2]; [M+K]+): 303.4 Å²
collision cross section (N2) ([2]; [M+Na]+): 303.1 Å²

Compound: CC=CCC=CCC=CCC=CCC=CCC=CCC=CCC=CCC(=O)OC[C@H](COP(=O)(O)OC[C@H](N)C(=O)O)OC(=O)CC=CCC=CCC=CCC=CCC=CCC=CCC=CCC=CC [PS(52:16)]
collision cross section (N2) ([2]; [M+Na]+): 322.2 Å²

Compound: CCCCCCCCCCCC[N+](CCCCCCCCCCCC)(CCCCCCCCCCCC)CCCCCCCCCCCC [TAA12]
collision cross section (N2) ([2]; [M]+): 319 Å²

Compound: OC[C@H]1O[C@@H]2O[C@H]3[C@H](O)[C@@H](O)[C@@H](O[C@H]4[C@H](O)[C@@H](O)[C@@H](O[C@H]5[C@H](O)[C@@H](O)[C@@H](O[C@H]6[C@H](O)[C@@H](O)[C@@H](O[C@H]7[C@H](O)[C@@H](O)[C@@H](O[C@H]8[C@H](O)[C@@H](O)[C@@H](O[C@H]9[C@H](O)[C@@H](O)[C@@H](O[C@H]1[C@H](O)[C@H]2O)O[C@@H]9CO)O[C@@H]8CO)O[C@@H]7CO)O[C@@H]6CO)O[C@@H]5CO)O[C@@H]4CO)O[C@@H]3CO [Gamma-Cyclodextrin]
collision cross section (N2) ([2]; [M+Cs]+): 338.2 Å²
collision cross section (N2) ([2]; [M+H]+): 322.6 Å²
collision cross section (N2) ([2]; [M+K]+): 324.8 Å²
collision cross section (N2) ([2]; [M+Li]+): 317.7 Å²
collision cross section (N2) ([2]; [M+Na]+): 322.1 Å²
collision cross section (N2) ([2]; [M+Rb]+): 327.3 Å²

Compound: OCC1OC(OC2C(CO)OC(OC3C(CO)OC(OC4C(CO)OC(OC5C(CO)OC(OC6C(CO)OC(OC7C(CO)OC(OC8C(CO)OC(O)C(O)C8O)C(O)C7O)C(O)C6O)C(O)C5O)C(O)C4O)C(O)C3O)C(O)C2O)C(O)C(O)C1O (centres undefined) [(Hex)8]
collision cross section (N2) ([2]; [M+H-H2O]+): 333.8 Å²
collision cross section (N2) ([2]; [M+Na]+): 320.9 Å² and 338.8 Å²

The next lines start with the values.

collision cross section (N2) ([1]; [M+H]+): 275 Å²
collision cross section (N2) ([1]; [M-H]-): 264.9 Å²
collision cross section (N2) ([2]; [M+K]+): 282.5 Å²
collision cross section (N2) ([2]; [M+Na]+): 281.3 Å²
Compound: CCCCC/C=C\C/C=C\CCCCCCCCCCCC(=O)O[C@H](COC(=O)CCCCCCCCCCCC)COP(=O)(O)OCCN [PE(35:2)]

collision cross section (N2) ([1]; [M+HCOO]-): 299.5 Å²
collision cross section (N2) ([1]; [M+H]+): 302 Å²
collision cross section (N2) ([2]; [M+Na]+): 305.6 Å²
Compound: CCCCCCCCCCCCC=CC[C@@H](O)[C@H](COP(=O)([O-])OCC[N+](C)(C)C)NC(=O)CC=CCC=CCCCCCCCCCCCCCCCCC [SM(42:3)]

collision cross section (N2) ([1]; [M+H]+): 276.8 Å²
collision cross section (N2) ([3]; [M+H]+): 274 Å²
collision cross section (N2) ([2]; [M+K]+): 289.2 Å²
Compound: CCC/C=C\C/C=C\CCCCCCCCCC(=O)O[C@H](COC(=O)CCCCCCCCCCCCC)COP(=O)([O-])OCC[N+](C)(C)C [PC(32:2)]

collision cross section (N2) ([1]; [M+H]+): 270.9 Å²
collision cross section (N2) ([1]; [M-H]-): 260.2 Å²
collision cross section (N2) ([2]; [M+Na]+): 276.1 Å²
Compound: CCCC/C=C\CCCCCCCC(=O)OC[C@H](COP(=O)(O)OCCN)OC(=O)CCCCCCCCC/C=C\C/C=C\CCCCC [PE(34:3)]

collision cross section (N2) ([1]; [M+H]+): 267.2 Å²
collision cross section (N2) ([1]; [M+Na]+): 272 Å²
collision cross section (N2) ([1]; [M-H]-): 256.6 Å²
collision cross section (N2) ([2]; [M+Na]+): 274.1 Å²
Compound: CCCCCCCCC/C=C\CCCCCCCC(=O)O[C@H](COC(=O)CCCCCCCCCCCC)COP(=O)(O)OCCN [PE(32:1)]

collision cross section (N2) ([1]; [M+H]+): 274.7 Å²
collision cross section (N2) ([1]; [M+Na]+): 281.2 Å²
collision cross section (N2) ([1]; [M-H]-): 263.5 Å²
collision cross section (N2) ([3]; [M+H]+): 272.8 Å²
collision cross section (N2) ([3]; [M-H]-): 262.8 Å²
collision cross section (N2) ([2]; [M+Na]+): 281.3 Å²
Compound: CCCCCCCCCC/C=C\CCCCCCCCCC(=O)O[C@H](COC(=O)CCCCCCCCCCC)COP(=O)(O)OCCN [PE(34:1)]

collision cross section (N2) ([1]; [M+H]+): 286.1 Å²
collision cross section (N2) ([2]; [M+Na]+): 290.9 Å²
Compound: CCCCCCCCCCCCC=CC[C@@H](O)[C@H](COP(=O)([O-])OCC[N+](C)(C)C)NC(=O)CC=CCCCCCCCCCCCCCC [SM(36:2)]

collision cross section (N2) ([1]; [M+H]+): 287.1 Å²
collision cross section (N2) ([1]; [M-H]-): 277.5 Å²
collision cross section (N2) ([3]; [M+H]+): 284.8 Å²
collision cross section (N2) ([3]; [M-H]-): 276.2 Å²
collision cross section (N2) ([2]; [M+Na]+): 294.8 Å²
Compound: CCCCC/C=C\C/C=C\C/C=C\CCCCC(=O)OC[C@H](COP(=O)(O)OCCN)OC(=O)CCCCCCCCCCC/C=C\C/C=C\CCCCC [PE(40:5)]

collision cross section (N2) ([2]; [M+Na]+): 287.3 Å²
Compound: CCCCC/C=C\C/C=C\CCCCCCCC(=O)O[C@H](COCCCCCCCCCCCCCCCCCC)COP(=O)(O)OCCN [PE(o36:2)]

collision cross section (N2) ([2]; [M+Na]+): 311.5 Å²
Compound: CCCCCCCCCCCCC=CC[C@@H](O)[C@H](COP(=O)([O-])OCC[N+](C)(C)C)NC(=O)CC=CCCCCCCCCCCCCCCCCCCCCC [SM(43:2)]

collision cross section (N2) ([1]; [M+H]+): 272.7 Å²
collision cross section (N2) ([1]; [M+Na]+): 277.6 Å²
collision cross section (N2) ([1]; [M-H]-): 262 Å²
collision cross section (N2) ([3]; [M+H]+): 269.9 Å²
collision cross section (N2) ([2]; [M+Na]+): 278.3 Å²
Compound: CCCCC/C=C\C/C=C\CCCCCCCCCC(=O)O[C@H](COC(=O)CCCCCCCCCCCCC)COP(=O)(O)OCCN [PE(34:2)]

collision cross section (N2) ([2]; [M+Na]+): 305.7 Å²
Compound: CCCCCCCCCCCCCCCCCCCCCC(=O)N[C@@H](COP(=O)([O-])OCC[N+](C)(C)C)[C@H](O)CCCCCCCCCCCCCCC [SM(40:0)]

collision cross section (N2) ([2]; [M+Na]+): 309.6 Å²
Compound: CCCCCCCCCCCCC=CC[C@@H](O)[C@H](COP(=O)([O-])OCC[N+](C)(C)C)NC(=O)CC=CCC=CCCCCCCCCCCCCCCCCCC [SM(43:3)]

Source: the C3SDB collision cross section collection
